# Test results published in patent US20090093460A1, “Compositions” (AstraZeneca AB, priority 2003, published 2009).
# Read-outs that look alike come from different tables or passages of the source.
# Assays:
# [1] = Plasma levels in satellite exposure animals (Geller-Seifter); format: in vivo; conditions: Long Evans, rat, subcutaneous, 0.25 hours after administration
# Protocol: Anxiolytic activity of 11-piperazin-1-yldibenzo[b,f][1,4]thiazepine was tested in rats according to the Geller-Seifter conflict test. Efficacy results are presented in Table 1 and plasma levels in satellite exposure animals at 0.25 hours after administration are provided in Table 2.
# Several doses were tested on a given day in different subjects. Each dose, then, was tested in a different sub-set of rats. The dependent variables recorded were the rate of responding in unpunished and punished components (total responses/total time under the component), the number of shocks delivered. A selective anxiolytic effect is defined as an increase in responding in the […] components with relatively less or no effect on responding in […] components. t-Tests were used to compare mean of the control's rate of responding on vehicle day of the rats used for a specific dose to the same rats means following delivery of each dose of compound (for only the rats used within each dose). Brains, CSF and plasma were collected in a satellite group of rats that match the Geller-Seifter rats to evaluate exposure levels.
# Exposure sampling: In weight and feeding status-matched subjects, terminal plasma, whole brain and CSF samples were collected. Four rats were used for each of the 4 doses of drug, with samples obtained 15 minutes after dosing.
# Adrenergic α1D = biological target: T1, Adrenergic α1D (Homo sapiens, UniProt P25100); assay: Radioligand binding 203400 Adrenergic α1D
# T1 construct: host or cells: HEK-293 cells
# T1 sequence (P25100 1-572): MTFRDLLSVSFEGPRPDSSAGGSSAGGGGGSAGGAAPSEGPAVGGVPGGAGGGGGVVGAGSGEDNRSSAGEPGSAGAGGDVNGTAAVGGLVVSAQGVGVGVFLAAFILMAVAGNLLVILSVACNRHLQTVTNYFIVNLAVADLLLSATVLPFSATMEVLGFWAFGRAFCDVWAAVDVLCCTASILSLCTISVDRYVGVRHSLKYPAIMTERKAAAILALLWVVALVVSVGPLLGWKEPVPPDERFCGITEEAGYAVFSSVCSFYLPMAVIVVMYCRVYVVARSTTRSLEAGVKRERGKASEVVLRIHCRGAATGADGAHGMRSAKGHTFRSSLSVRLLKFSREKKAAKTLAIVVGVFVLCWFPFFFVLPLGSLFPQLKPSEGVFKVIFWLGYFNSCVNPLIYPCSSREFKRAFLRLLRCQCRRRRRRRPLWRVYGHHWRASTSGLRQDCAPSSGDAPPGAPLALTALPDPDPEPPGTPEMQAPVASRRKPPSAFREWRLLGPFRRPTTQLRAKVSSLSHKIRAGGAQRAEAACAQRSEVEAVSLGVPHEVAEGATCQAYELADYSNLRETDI
# Excerpt: Receptor binding methods, (α-adrenergic subtype specific, are provided below.
# Adrenergic α2B = biological target: T2, Adrenergic α2B (Homo sapiens, UniProt P18089); assay: Radioligand binding Adrenergic α2B
# T2 sequence (P18089 1-450): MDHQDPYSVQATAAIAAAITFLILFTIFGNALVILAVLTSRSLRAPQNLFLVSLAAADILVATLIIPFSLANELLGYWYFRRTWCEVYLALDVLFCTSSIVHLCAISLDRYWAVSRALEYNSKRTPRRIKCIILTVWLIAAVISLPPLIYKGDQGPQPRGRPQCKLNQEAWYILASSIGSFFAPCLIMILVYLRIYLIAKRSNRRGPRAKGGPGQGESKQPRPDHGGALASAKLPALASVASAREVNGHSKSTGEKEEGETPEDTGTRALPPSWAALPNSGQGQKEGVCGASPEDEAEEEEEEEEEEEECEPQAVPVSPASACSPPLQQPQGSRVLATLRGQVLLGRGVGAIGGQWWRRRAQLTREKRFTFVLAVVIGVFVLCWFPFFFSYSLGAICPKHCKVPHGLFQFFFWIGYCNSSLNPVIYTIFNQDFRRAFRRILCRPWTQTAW
# [2] = PET scans of primate subjects, brain entry; format: in vivo; conditions: preliminary PET scans
# Excerpt: (§1) The compound of Formula I is a dibenzothiazepine that has shown antidopaminergic activity.
# Adrenergic α2C = biological target: T3, Adrenergic α2C (Homo sapiens, UniProt P18825); assay: Radioligand binding Adrenergic α2C
# T3 sequence (P18825 1-462): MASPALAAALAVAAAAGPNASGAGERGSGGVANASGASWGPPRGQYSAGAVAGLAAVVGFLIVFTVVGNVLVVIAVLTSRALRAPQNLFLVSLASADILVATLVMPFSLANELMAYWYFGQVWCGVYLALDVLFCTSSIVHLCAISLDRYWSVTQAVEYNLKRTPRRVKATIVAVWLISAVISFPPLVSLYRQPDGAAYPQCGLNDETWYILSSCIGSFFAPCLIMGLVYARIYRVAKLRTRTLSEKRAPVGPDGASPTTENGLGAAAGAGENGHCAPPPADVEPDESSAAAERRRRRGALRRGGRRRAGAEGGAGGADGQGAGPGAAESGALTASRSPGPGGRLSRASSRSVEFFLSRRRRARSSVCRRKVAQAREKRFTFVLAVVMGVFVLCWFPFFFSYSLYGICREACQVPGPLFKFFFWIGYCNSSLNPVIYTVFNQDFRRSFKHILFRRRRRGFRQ
# D2 receptors = biological target: T4, D2 receptors (Homo sapiens, UniProt P14416); design: species or system primate; conditions: in vivo
# T4 construct: from tissue; host or cells: brain of living primate subjects (PET)
# T4 sequence (P14416 whole entry): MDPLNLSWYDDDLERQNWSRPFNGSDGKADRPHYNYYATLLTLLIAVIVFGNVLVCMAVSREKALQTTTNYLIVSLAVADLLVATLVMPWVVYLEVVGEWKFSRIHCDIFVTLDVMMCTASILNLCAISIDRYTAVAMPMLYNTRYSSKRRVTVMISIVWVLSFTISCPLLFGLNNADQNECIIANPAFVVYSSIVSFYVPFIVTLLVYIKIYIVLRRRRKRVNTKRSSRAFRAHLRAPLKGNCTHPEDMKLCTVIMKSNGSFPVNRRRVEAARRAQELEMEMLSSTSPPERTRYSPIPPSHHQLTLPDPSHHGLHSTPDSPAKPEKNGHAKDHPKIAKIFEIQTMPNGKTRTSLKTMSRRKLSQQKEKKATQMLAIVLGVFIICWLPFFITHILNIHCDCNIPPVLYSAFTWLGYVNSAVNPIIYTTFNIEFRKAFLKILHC
# 5-HT2A receptors = biological target: T5, 5-HT2A receptors (Homo sapiens, UniProt P28223); assay: PET scans of primate subjects, 5-HT2A occupancy; format: in vivo; conditions: preliminary PET scans
# T5 construct: from tissue; host or cells: brain of living primate subjects (PET)
# T5 sequence (P28223 whole entry): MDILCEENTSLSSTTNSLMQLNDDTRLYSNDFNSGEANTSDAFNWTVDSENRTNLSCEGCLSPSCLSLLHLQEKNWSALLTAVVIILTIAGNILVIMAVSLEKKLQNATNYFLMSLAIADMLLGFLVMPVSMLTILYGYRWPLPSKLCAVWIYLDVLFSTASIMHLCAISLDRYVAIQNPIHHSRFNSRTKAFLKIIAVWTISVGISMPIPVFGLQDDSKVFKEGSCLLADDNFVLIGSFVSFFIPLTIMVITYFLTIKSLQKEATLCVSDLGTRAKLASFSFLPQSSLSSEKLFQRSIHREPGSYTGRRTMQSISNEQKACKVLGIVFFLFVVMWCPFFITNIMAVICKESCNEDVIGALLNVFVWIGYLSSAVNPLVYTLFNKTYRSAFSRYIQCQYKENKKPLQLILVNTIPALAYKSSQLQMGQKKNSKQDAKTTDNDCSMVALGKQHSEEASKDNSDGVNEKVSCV
# Excerpt: as §1
smiles,measurement,setting,value
"c1ccc2c(c1)N=C(N1CCNCC1)c1ccccc1S2 [11-piperazin-1-yldibenzo[b,f][1,4]thiazepine]",concentration at 0.25 h,[1]; 2 mg/kg s.c.,4.8 µM
same,concentration at 0.25 h,[1]; 5 mg/kg s.c.,12.1 µM
same,concentration at 0.25 h,[1]; 10 mg/kg s.c.,19.4 µM
same,IC50,Adrenergic α1D,377 ± 49 nM
same,n,Adrenergic α1D,0.984 ± 0.111
same,inhibition at 0.3 µM,Adrenergic α1D; 0.3 μM,53%
same,Ki,Adrenergic α1D; read-out: ki,185 ± 24 nM
same,Ki,"Adrenergic α1D; α1D, read-out: Affinity",185 nM
same,IC50,Adrenergic α2B,451 ± 97 nM
same,Ki,Adrenergic α2B,206 ± 44.5 nM
same,n,Adrenergic α2B,0.902 ± 0.055
same,inhibition at 1 µM,Adrenergic α2B; 1 μM,62%
same,brain entry by PET,[2],reaches the brain
same,IC50,Adrenergic α2C,5.64 ± 1.01 µM
same,n,Adrenergic α2C,1.1 ± 0.079
same,inhibition at 10 µM,Adrenergic α2C; 10 μM,58%
same,Ki,Adrenergic α2C; read-out: ki,820 ± 146 nM
same,Ki,"Adrenergic α2C; α2C, read-out: Affinity",820 nM
same,receptor occupancy by PET,D2 receptors,occupies
same,receptor occupancy by PET,5-HT2A receptors,occupies
